Test [1] has as its system aortic smooth muscle cells of rats. As to the kind of experiment: Secretion of osteopontin protein into conditioned medium from aortic smooth muscle cells of rats (Western blotting). Format: cell-based, rat. The note with it: normal glucose; pitavastatin calcium 0.03 and 0.3 μM, atorvastatin 0.3 and 3 μM; 48 hours; FIG. 1. As to the method: The effect of pitavastatin calcium and atorvastatin on the secretion of osteopontin protein into the conditioned culture medium from aortic smooth muscle cells of rats cultured under the normal glucose concentration were measured according to the method described below.
At first, aortic smooth muscle cells of rats (5 to 10 passage culture) were seeded in a 6-well culture plate and the confluent cultures were attained by culturing in low glucose (1000 mg/L) Dulbecco's modified Eagle's medium (DMEM) with 10% fetal bovine serum (FBS: BioWhittaker Co. Ltd.) under 5% CO2 atmosphere at 37° C. […]
After centrifugation, sedimented DE52 gels were washed several times with the same buffer, and 60 μL of 0.2M Tris hydrochloride buffer solution (pH 6.8) containing 5% of 2-mercaptoethanol, 4% of SDS, […], 20% of glycerol and 0.01% of bromophenol blue was added, and heat-treated for 5 minutes at 95° C. […] Chemiluminescences were detected on X-ray film using ECL™ (Amersham Pharmacia Biotech Co. Ltd.). The density of the bands were analyzed according to NIH Image. […]
The density of osteopontin protein measured with NIH Image Analysis for various concentration of pitavastatin calcium are shown in FIG. 1(a), and the density of osteopontin protein measured with NIH Image Analysis for various concentration of atorvastatin are shown in FIG. 1(b).
On the technique in general: A western blot detects proteins with antibodies after separation by electrophoresis.

For test [2] the test system is unchanged. As to the kind of experiment: Secretion of osteopontin protein from aortic smooth muscle cells of rats, with or without mevalonic acid (western blotting). Format: cell-based, rat. The note with it: FIG. 2(b). As to the method:
(§1) The effect of mevalonic acid on the suppression with pitavastatin calcium for the expression of osteopontin mRNA and the secretion of osteopontin protein in aortic smooth muscle cells of rats were measured according to the method described below.
(§2) Aortic smooth muscle cells of rats (5 to 10 passage culture) were seeded in a 6-well culture plate and the confluent cultures were attained by culturing in low glucose (1000 mg/L) DMEM with 10% FBS under 5% CO2 atmosphere at 37° C. Thereafter, the medium was replaced with the medium with pitavastatin calcium (8 μM) and/or mevalonic acid (100 μM), and the cells were cultured for another 48 hours. The medium was again replaced with 1.5 mL of FBS-free medium per well, and the cells were cultured further for 48 hours.
At the same time, the conditioned medium was collected, osteopontin protein was absorbed on DE52, subjected to electrophoresis exactly as in Example 2, and the amount of the secreted osteopontin protein was analyzed by western blotting method.
(§3) The above measurements were carried out in the three cases when pitavastatin calcium and mevalonic acid were not added, when only pitavastatin calcium was added, and when both pitavastatin calcium and mevalonic acid were added.

Test [3] concerns osteopontin mRNA. As to the kind of experiment: Expression of osteopontin mRNA in the kidney and blood vessels of STZ-induced diabetic rats and normal rats (Northern blotting). The note with it: for Kidney OPNmRNA/18S / Aorta OPNmRNA/18S / Aorta % Inhibition / Kidney % Inhibition: oral 3 mg/kg once a day, 7 days; for Kidney OPNmRNA/18S / Aorta OPNmRNA/18S: mean ± standard deviation, 3 mg/kg. It counts as in vivo, rat. As for the experimental part:
The effects of pitavastatin calcium on the expression of osteopontin mRNA in the kidney and blood vessels of STZ-induced diabetic rats were investigated according to the method described below.
Namely, 35 mg per kg of body weight of STZ dissolved in the concentration of 50 mg/mL of physiological saline was injected into the tail vein of male Wistar rats (body weight: about 300 g), and the animals were orally administered 1 mL/kg of body weight of 0.5% carboxymethylcellulose solution containing the test drug (pitavastatin calcium) in the concentration of 3mg/mL with a gastric sonde. Thereafter the oral administration was performed once a day by same volume and at fixed time during the experiment. The same volume of only 0.5% carboxymethylcellulose was given by the forced oral administration for the control group. The venous blood was withdrawn from the tail vein on the second day of the experiment and the presence of 200 mg/dL or above of the blood sugar level was confirmed.
24 hours after 7 days administration, the blood was withdrawn under the ether anesthesia, and kidneys and thoracic aorta were isolated. The predetermined amount of the tissue piece in ISOGEN (Wako Pure Chemicals K.K.) was homogenized in a polytron homogenizer and the total RNA was extracted. The total RNA thus obtained was precipitated by using isopropanol. The precipitate was washed with 70% ice cold ethanol and stored at −80° C. in 70% ethanol.
Osteopontin mRNA in the total RNA obtained was detected by the conventional Northern blotting method. That is to say that the total RNA precipitated with 70% ethanol was subjected to centrifugation at 15000 rpm, the precipitate was dried at room temperature after decanting the supernatant and dissolved in a small amount of TE buffer (10 mM Tris-HCl buffer-1 mM EDTA solution). 10 μL out of the solution thus obtained was diluted with 990 μL of TE buffer solution, and the amount of RNA was calculated by measuring the absorbance at 260 nm ultraviolet light of the solution. 40% solution of deionized glyoxal (3.5 μL), 0.1 M of NaHPO4 buffer solution (2.4 μL) and dimethylsulfoxide (11.8 μL) were added to the predetermined amount (10 or 20 μg) of the total RNA (final volume: 6 μL), heated at 50° C. for 1 hour and the total RNA was denatured. 6.3 μL of 10 mM sodium phosphate buffer solution (pH: 6.8) containing 50% glycerol and 0.4% bromophenol blue was added to the solution after the solution was cooled to the room temperature, and then RNA was subjected to electrophoresis using 1.5% agarose gel. RNA was blotted from agarose to nylon membrane in a conventional fashion by using 20×saline-sodium citrate (SSC). The blotted nylon membrane was washed with 2×SSC, and RNA was fixed on the nylon membrane by heating it to 80° C. in vacuo. DNA fragment encoding osteopontin was digested from pCRIIrOP vector with Eco R1 endonuclease and purified with Probe Quant™G-50 Micro Columns (Amersham Pharmacia Biotech Co. Ltd.). DNA fragment encoding Osteopontin thus obtained was hybridized for overnight together with the nylon membrane at 65° C. with Rediprime™ II (Amersham Pharmacia Biotech Co. Ltd.) radioactive probe labeled with ^32P radioisotope. Radioisotope level of the probe bound to the nylon membrane was detected on the X-ray film and the density of the bands were analyzed according to NIH Image. […] was used as the RNA internal standard and the amount of the expression was represented with the comparative intensities of the density of the bands. Osteopontin mRNA was similarly measured in the normal rat experiment.
In Table 1, OPN mRNA/18S represents the ratio of the density of osteopontin mRNA to the density of […] based on the NIH Image Analysis and % inhibition represents that to the respective control groups. The values of OPNmRNA/18S are mean ± standard deviation.

Test [4] has as its system aortic smooth muscle cells of rats. As to the kind of experiment: Expression of osteopontin mRNA in aortic smooth muscle cells of rats, with or without mevalonic acid (northern blotting). It counts as cell-based, rat. The note with it: FIG. 2(a). As for the experimental part: as §1, §2
After the cultivation, the cells adhered to the culture plate were homogenized together with ISOGEN, RNA were extracted exactly as in Example 1, and the amount of osteopontin mRNA was analyzed by northern blotting method.
as §3

[5] abbreviates: pitavastatin calcium 8 μM alone, 48 hours.
[6] abbreviates: pitavastatin calcium 8 μM with addition of mevalonic acid 100 μM.
[7] abbreviates: STZ-induced diabetic rats with drug administration, versus diabetic control.
[8] abbreviates: healthy rats with drug administration, versus healthy control.
[9] abbreviates: rats with drug administration, listed as Pitavastatin calcium.

For `CC(C)c1c(C(=O)Nc2ccccc2)c(-c2ccccc2)c(-c2ccc(F)cc2)n1CC[C@@H](O)C[C@@H](O)CC(=O)O` [atorvastatin], the “Amount of the secretion of osteopontin protein into the conditioned medium” value in test [1] is listed as “inhibited with the statistical significance”.
Regarding “(+)-bis{(3R, 5S, 6E)-7-[2-cyclopropyl4-(4-fluorophenyl)-3-quinolyl]-3,5-dihydroxy-6-heptenoic acid}-calcium [pitavastatin calcium]”, the “Secretion of osteopontin protein” value in test [2] (setting [5]) is listed as “suppresses”. The “Suppressive effect on the secretion of osteopontin protein” value in test [2] (setting [6]) is recorded as “disappear”. For the same compound, the “Kidney OPNmRNA/18S” value is 1.933 ± 0.874 in test [3] (STZ-induced diabetic rats with drug administration, p = 0.016 vs control); 1.933 in test [3] (STZ-induced diabetic rats with drug administration, p = 0.016 vs control, listed as Pitavastatin calcium); 1.667 ± 0.321 in test [3] (rats with drug administration); 1.667 in test [3] (setting [9]). Also, the “Aorta OPNmRNA/18S” value stood at 1.300 in test [3] (STZ-induced diabetic rats with drug administration, p = 0.036 vs control); 1.300 in test [3] (STZ-induced diabetic rats with drug administration, p = 0.036 vs control, listed as Pitavastatin calcium); 2.433 ± 0.929 in test [3] (rats with drug administration); 2.433 in test [3] (setting [9]). For the same compound, the figures for the “Aorta % Inhibition” value in test [3] (setting [7]) and in test [3] (setting [8]) were 59.4% and −1.4%, respectively. For the same compound, the “Kidney % Inhibition” value is given as 40.2% in test [3] (setting [7]) and −24.1% in test [3] (setting [8]). For the same compound, in test [3] (healthy rats), the “Influence on the expression of osteopontin in the kidney and the aorta” value was “did not influence”. In addition, the “Expression of osteopontin mRNA (ratio to 18S)” value in test [4] (setting [5]) was “suppresses”. Moreover, in test [4] (setting [6]), the “Suppressive effect on the expression of osteopontin mRNA” value was “disappear”. The “Amount of the secretion of osteopontin protein into the conditioned medium” value in test [1] is listed as “inhibited with the statistical significance”.

The values above are taken from patent US20040087597A1, “Preventives and remedies for complications of diabetes” (priority 2000, published 2004).
